Results as given in paper PMC7926726, “The Wound Healing Peptide, AES16-2M, Ameliorates Atopic Dermatitis In Vivo” (Molecules, 2021).
Ends that are not written are not given here.

Assay: Water solubility of the peptide
Format: physicochemical
Conditions: in water; analysed by Anygen; previously described [16] and updated in this study
Experimental: To investigate whether the wound healing peptide, AES16-2M, could improve AD, Dermatophagoides farina (Df) body-induced AD model was established, and 10 mg/kg of AES16-2M was used as the optimal dose determined by preliminary experiments. […] Since increased IgE and TSLP production is closely related to AD pathology, the total IgE levels from sera were determined.
AES16-2M was synthesized and analyzed for purity, water solubility, and molecular weight by Anygen (Gwang Ju, Korea). Peptide with purity over 95% was used for this study.

REGRT [AES16-2M]
water solubility: over 10.0 mg/mL
